Results on one compound are retold here after US5300629A, “Bactericidal and/or bacteriostatic peptides isolated from hemolymph of honeybees” (Plant Genetic Systems, N.V., priority 1987, dated 1994).

The test system of this assay is Corynebacterium insidiosum NCPPB 1109. Briefly: Minimal inhibitory concentration in liquid culture. The following applies: 200 μl rich medium, 10^4 log-phase bacteria. The assay is classed as cell-based. As to the method:
In addition the exact concentration was determined precisely by amino-acid analysis and an equal sample of natural Bee 6b was prepared, allowing to compare the bactericidal activity of both natural and synthetic apidaecins by means of growth inhibition assays in liquid cultures (see mat & Meth.). The minimal inhibitory concentrations (μg/ml) were determined in liquid culture : 200 μl of a rich medium (trypticase soy broth or nutrient broth) was inoculated with 10^4 log-phase bacteria. Peptide concentrations ranged between 0 and 200 μg/ml. The values express μg/ml; when no inhibition was noticed the maximal values are given (+200 μg/ml or +50 μg/ml). All peptides were chemically synthesized, except for bee 6b which is purified from bee lymph.

≈ marks a conversion by molar mass, not a printed value. Where a SMILES comes first, the peptide text is derived from it.

In turn, `CC[C@H](C)[C@H](NC(=O)[C@H](Cc1ccc(O)cc1)NC(=O)[C@@H](NC(=O)[C@@H]1CCCN1C(=O)[C@H](CCCNC(=N)N)NC(=O)[C@H](CC(N)=O)NC(=O)[C@H](CC(N)=O)NC(=O)CN)C(C)C)C(=O)N[C@@H](CCC(N)=O)C(=O)N1CCC[C@H]1C(=O)N[C@@H](CCCNC(=N)N)C(=O)N1CCC[C@H]1C(=O)N1CCC[C@H]1C(=O)N[C@@H](Cc1c[nH]cn1)C(=O)N1CCC[C@H]1C(=O)N[C@@H](CCCNC(=N)N)C(=O)N[C@@H](CC(C)C)C(=O)O` [Apid PT-1] (H-GNNRPVYIQPRPPHPRL-OH) gave a minimal inhibitory concentration of 50 µg/mL (≈ 24.9 µM).
